One compound from US20240131112A1, “USE OF METHANOBACTIN FOR TREATMENT OF IRON-RELATED DISEASES” (Helmholtz Zentrum Muenchen - Deutsches Forschungszentrum …, priority 2021, published 2024) can be followed below.

Each structure is given as a SMILES string.

One assay has as its system LPP Atp7b^−/− rats. In words: Fecal iron excretion after intraperitoneal injection. As to conditions: i.p. twice a day for four days, 110 mg/kg bw MB-SB2 or 150 mg/kg bw MB-OB3b, ICP-OES. The class given is in vivo, rat. On the procedure: LPP Atp7b^−/− rats were injected intraperitoneally (i.p.) twice a day for four consecutive days with either 110 mg/kg bw MB-SB2 or 150 mg/kg bw MB-OB3b. Rats were housed individually in metabolic cages for 4 days. Feces of each rat was collected in 24-hour periods at 24, 48, 72 and 96 hours after treatment start. Feces was separated from chow residues, dried, homogenized by grinding or milling and digested with concentrated HNO3 and iron content determined with inductively coupled plasma optical emission spectrometry (ICP-OES).

The subject of assay [1] is livers from LPP Atp7b^−/− rats. The assay can be described thus: Liver perfusion experiments, biliary iron excretion. As to conditions: liver perfusion one hour at 37° C., 35 μmol methanobactin, ICP-OES. On the set-up: species or system rat. As to the method: Cannulated livers from LPP Atp7b^−/− rats were perfused for one hour at 37° C. with Krebs-Ringer bicarbonate solution, gassed with 95% O2 and 5% CO2, and MB-SB2 or MB-OB3b (35 μmol). During perfusion total bile was collected in 10-minute intervals. Biliary iron concentrations were determined by inductively coupled plasma optical emission spectrometry (ICP-OES) as described (Lichtmannegger et al. J Clin Invest, 2016, 126, 2721-2735).

Assay [2] concerns Huh7 cells (human hepatoma cell line). The assay can be described thus: Cellular iron concentration in iron-preloaded Huh7 cells. The class given is cell-based. As to conditions: Huh7 preloaded 24 hours with 50 μM FAC, then 0.5 mM test substance for 24 hours, N=4. As to the method: FIG. 5: Control Huh7 cells (human hepatoma cell line) were preloaded for 24 hours with 50 μM FAC. The cells were then treated with 0.5 mM MB-SB2, 0.5 mM MB-OB3b and 0.5 mM DFO for 24 hours. […] Statistical analysis was done by One-way ANOVA (N=4).

Turning to `CC(NC(=O)C(C)NC(=S)C1N=C(C(NC(=O)C(CO)NC(=O)C(C)NC(=S)C2N=C(C(=O)CCCNC(=N)N)NC2=O)C(C)OS(=O)(=O)O)OC1=O)C(=O)O` (stereo not drawn) [MB-SB2], the Fecal iron excretion entry in the assay on LPP Atp7b^−/− rats is reported as “excrete iron in feces”. Also, the Biliary iron excretion result in assay [1] is “brings iron to the bile”. For the same compound, the Cellular iron concentration result in assay [2] is “significantly reduces cellular iron concentration in iron-preloaded Huh7 cells to the untreated level”.
